Reference: ChEMBL document CHEMBL5260829, “Recent advances in the discovery of small molecule c-Met Kinase inhibitors” (Eur J Med Chem, 2018)

Tests used:
[1] = system: HepG2; test: Antiproliferative activity against human HepG2 cells assessed as reduction in cell proliferation incubated for 48 hrs by MTT assay; assay type: functional, cell-based; conditions: HepG2, 48 h
[2] = Cmax in mouse at 10 mg/kg, po; assay type: ADME, organism-based; set-up: dose 10 mg/kg, route po; conditions: in vivo
[3] = Half life in mouse at 10 mg/kg, po; assay type: ADME, organism-based; conditions: in vivo
[4] = AUC in mouse at 10 mg/kg, po; assay type: ADME, organism-based; set-up: dose 10 mg/kg, route po; conditions: in vivo
[5] = Oral bioavailability in mouse at 10 mg/kg; assay type: ADME, organism-based; conditions: in vivo
[6] = system: NIH3T3; test: In vivo antitumor activity against mouse NIH3T3 cells expressing […] protein xenografted in nude mouse assessed as tumor growth inhibition at 100 mg/kg,po for 11 days; assay type: functional; conditions: NIH3T3, 264 h, time 11 day, read-out: TGI
[7] = system: MKN-45; test: cells; conditions: Homo sapiens, MKN-45, 72 h
[8] = system: SNU-5; test: cells; conditions: Homo sapiens, SNU-5, 72 h
[9] = system: BaF3; test: cells; conditions: Mus musculus, BaF3, 72 h
[10] = system: NIH3T3; test: cells; conditions: Mus musculus, NIH3T3, 72 h
[11] = molecular target: T1, Hepatocyte growth factor receptor (Homo sapiens, UniProt P08581); test: Inhibition of His6-tagged recombinant human c-Met using 5FAM-KKK-SPGEYVNIGFG-NH2 as substrate in presence of ATP incubated for 60 mins by AiphaQuest assay
[12] = system: Bel-7402; test: Antiproliferative activity against human Bel-7402 cells assessed as reduction in cell viability incubated for 24 hrs by MTT assay; assay type: functional, cell-based; conditions: Bel-7402, 24 h
[13] = system: HepG2; test: Antiproliferative activity against human HepG2 cells assessed as reduction in cell viability incubated for 24 hrs by MTT assay; assay type: functional, cell-based; conditions: HepG2, 24 h
[14] = system: A549; test: Antiproliferative activity against human A549 cells assessed as reduction in cell viability incubated for 24 hrs by MTT assay; assay type: functional, cell-based; conditions: A549, 24 h
[15] = system: HeLa; test: Antiproliferative activity against human HeLa cells assessed as reduction in cell viability incubated for 24 hrs by MTT assay; assay type: functional, cell-based
[16] = molecular target: T1, Hepatocyte growth factor receptor; test: Inhibition of c-Met (unknown origin) using poly(Glu-Tyr) at 4:1 ratio as substrate in presence of ATP incubated for 60 mins by ELISA
[17] = molecular target: T1, Hepatocyte growth factor receptor; test: Inhibition of c-Met (unknown origin) kinase activity using peptide as substrate in presence of ATP incubated for 1 hrs by ELISA
[18] = system: BaF3; test: Antiproliferative activity against mouse BaF3 cells expressing […] protein assessed as reduction in cell proliferation incubated for 72 hrs by Cell Titer-Glo luminescence assay; assay type: functional, cell-based; conditions: BaF3, 72 h
[19] = molecular target: T1, Hepatocyte growth factor receptor; test: Inhibition of c-Met (unknown origin) kinase activity using peptide as substrate in presence of 33P-ATP incubated for 20 to 30 mins by scintillation counter analysis
[20] = system: A549; test: Antiproliferative activity against human A549 cells assessed as reduction in cell proliferation incubated for 48 hrs by sulforhodamine B assay; assay type: functional, cell-based; conditions: A549, 48 h
[21] = system: HT-29; test: Antiproliferative activity against human HT-29 cells assessed as reduction in cell proliferation incubated for 48 hrs by sulforhodamine B assay; assay type: functional, cell-based; conditions: HT-29, 48 h
[22] = system: MKN-45; test: Antiproliferative activity against human MKN-45 cells assessed as reduction in cell proliferation incubated for 48 hrs by sulforhodamine B assay; assay type: functional, cell-based; conditions: MKN-45, 48 h
[23] = molecular target: T1, Hepatocyte growth factor receptor; test: Inhibition of c-Met (unknown origin)
[24] = system: MKN-45; test: Antiproliferative activity against human MKN-45 cells assessed as reduction in cell proliferation incubated for 72 hrs by CellTiter-Glo luminescent assay; assay type: functional, cell-based; conditions: MKN-45, 72 h
[25] = system: EBC-1; test: Antiproliferative activity against human EBC-1 cells assessed as reduction in cell proliferation incubated for 72 hrs by CellTiter-Glo luminescent assay; assay type: functional, cell-based; conditions: EBC-1, 72 h
[26] = molecular target: T1, Hepatocyte growth factor receptor; test: Inhibition of c-Met (unknown origin) kinase activity using poly(Glu-Tyr) at 4:1 ratio as substrate in presence of ATP incubated for 30 mins by HTRF assay
[27] = system: BaF3; test: cells; conditions: Mus musculus, BaF3, 72 h; remark: listed apart in the source
[28] = system: HUVEC; test: cells; conditions: Homo sapiens, 72 h
[29] = molecular target: T1, Hepatocyte growth factor receptor; test: Inhibition of recombinant c-Met (unknown origin) using peptide as substrate in presence of ATP by TR-FRET assay
[30] = system: Hs746T; test: Antiproliferative activity against human Hs746T cells assessed as reduction in cell viability incubated for 72 hrs by WST-8 assay; assay type: functional, cell-based
[31] = system: EBC-1; test: cells; conditions: Homo sapiens, EBC-1, 72 h
[32] = system: HT-29; test: Antiproliferative activity against human HT-29 cells assessed as reduction in cell proliferation incubated for 72 hrs by MTT assay; assay type: functional, cell-based; conditions: HT-29, 72 h
[33] = molecular target: T1, Hepatocyte growth factor receptor; test: Inhibition of c-Met (unknown origin) kinase activity using biotinylated poly-tyrosine as substrate in presence of ATP incubated for 1 hr by AlphaQuest analysis
[34] = system: MKN-45; test: Antiproliferative activity against human MKN-45 cells assessed as reduction in cell proliferation incubated for 48 hrs; assay type: functional, cell-based; conditions: MKN-45, 48 h
[35] = system: MKN-45; test: cells; conditions: Homo sapiens, MKN-45, 72 h; remark: listed apart in the source
[36] = system: EBC-1; test: cells; conditions: Homo sapiens, EBC-1, 72 h; remark: listed apart in the source

T1 sequence (P08581 whole entry): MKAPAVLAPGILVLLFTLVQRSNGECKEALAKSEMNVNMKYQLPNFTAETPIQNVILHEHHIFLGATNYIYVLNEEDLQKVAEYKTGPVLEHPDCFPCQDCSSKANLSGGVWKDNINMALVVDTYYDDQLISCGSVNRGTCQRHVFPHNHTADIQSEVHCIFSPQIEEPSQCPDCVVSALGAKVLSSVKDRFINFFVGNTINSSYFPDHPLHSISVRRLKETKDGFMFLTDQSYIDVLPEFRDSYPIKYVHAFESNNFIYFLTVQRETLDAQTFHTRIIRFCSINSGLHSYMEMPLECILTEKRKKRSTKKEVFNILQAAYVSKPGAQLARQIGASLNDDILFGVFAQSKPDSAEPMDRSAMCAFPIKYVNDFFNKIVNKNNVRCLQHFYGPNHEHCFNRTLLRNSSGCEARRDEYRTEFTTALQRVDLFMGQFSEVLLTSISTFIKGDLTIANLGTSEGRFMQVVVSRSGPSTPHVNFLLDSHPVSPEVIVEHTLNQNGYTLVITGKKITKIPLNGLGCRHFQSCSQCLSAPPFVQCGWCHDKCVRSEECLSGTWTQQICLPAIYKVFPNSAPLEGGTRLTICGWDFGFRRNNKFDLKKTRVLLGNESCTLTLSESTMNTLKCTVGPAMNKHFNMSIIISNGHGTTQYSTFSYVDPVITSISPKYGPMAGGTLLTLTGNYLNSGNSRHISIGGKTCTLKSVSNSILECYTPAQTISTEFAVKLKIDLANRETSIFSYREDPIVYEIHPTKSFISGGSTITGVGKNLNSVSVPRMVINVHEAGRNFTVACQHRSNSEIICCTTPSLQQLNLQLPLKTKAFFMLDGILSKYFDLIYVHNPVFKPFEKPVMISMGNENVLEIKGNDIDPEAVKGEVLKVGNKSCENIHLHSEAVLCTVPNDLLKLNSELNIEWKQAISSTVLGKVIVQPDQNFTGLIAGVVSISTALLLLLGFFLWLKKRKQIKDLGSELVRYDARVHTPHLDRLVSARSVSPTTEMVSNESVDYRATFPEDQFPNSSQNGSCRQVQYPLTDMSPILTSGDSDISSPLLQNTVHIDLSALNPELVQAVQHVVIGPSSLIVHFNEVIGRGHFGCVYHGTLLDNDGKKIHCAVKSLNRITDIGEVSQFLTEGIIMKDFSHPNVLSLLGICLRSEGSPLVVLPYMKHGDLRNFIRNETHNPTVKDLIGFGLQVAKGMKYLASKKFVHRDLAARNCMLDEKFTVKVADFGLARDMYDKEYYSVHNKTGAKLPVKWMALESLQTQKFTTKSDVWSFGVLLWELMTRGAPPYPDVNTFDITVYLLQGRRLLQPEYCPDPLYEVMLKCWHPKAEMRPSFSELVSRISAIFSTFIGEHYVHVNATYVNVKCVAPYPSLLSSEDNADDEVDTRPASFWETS

Compound: CC(C)(C)OC(=O)N1CCc2c(sc3ncnc(Oc4ccc(NC(=O)C5(C(=O)Nc6ccc(F)cc6)CC5)cc4F)c23)C1
- IC50 [1]: 1700 nM

Compound: O=C(Nc1ccc(Oc2ccnc3[nH]c(-c4ccsc4)nc23)cc1)c1cccn(-c2ccc(F)cc2)c1=O
- Cmax [2]: 2170 ng/mL
- half-life [3]: 2.07 h
- AUC [4]: 6280 ng·h/mL
- bioavailability [5]: 28.3%
- inhibition in vivo at 100 mg/kg [6]: 30.9%
- IC50 [7]: 4300 nM
- IC50 [8]: 5300 nM
- IC50 [9]: 590 nM
- IC50 [10]: 1600 nM

Compound: CC(C)=C1C/C=C(\C)CC/C=C(\C)CC1OS(=O)(=O)c1ccc(C)cc1 (stereo not given)
- inhibition [11]: 56%
- IC50 [12]: 71800 nM
- IC50 [13]: 56200 nM
- IC50 [14]: 84500 nM
- IC50 [15]: 88600 nM

Compound: COC(=O)c1ccc(N2NC(=O)/C(=C/c3ccc(-c4ccc(Cl)c(C(=O)O)c4)o3)C2=O)cc1
- IC50 [16]: 9500 nM

Compound: Clc1ccc(-c2cn3cccc(COc4nnc5ccc(Cl)nn45)c3n2)c(Cl)c1
- IC50 [17]: 53.4 nM
- IC50 [18]: 253 nM

Compound: O=C(CSc1nc(=O)c(/C=C/c2ccco2)n[nH]1)N/N=C/c1cccs1
- IC50 [19]: 4310 nM
- IC50 [20]: 20 nM
- IC50 [21]: 30 nM
- IC50 [22]: 60 nM

Compound: c1cnc2ccc(Cn3nnc4ncc(-c5ccc6[nH]c7c(c6c5)CNCC7)nc43)cc2c1
- IC50 [23]: 14.5 nM

Compound: Fc1ccc(Cl)c(Sc2n[nH]c3ncc(-c4cnn(C5CCNCC5)c4)cc23)c1Cl
- IC50 [24]: 329 nM
- IC50 [25]: 479 nM

Compound: COc1cc2c(Oc3ccc(NC(=O)c4cn(-c5ccccc5C(F)(F)F)c5ccccc5c4=O)cc3F)ccnc2cc1OCCCN1CCCCC1
- IC50 [26]: 1.35 nM
- IC50 [7]: 10 nM

Compound: Cc1c(C(=O)Nc2ccc(Oc3ccnc(-c4nncn4CCCN4CCN(C)CC4)c3)c(F)c2)c(=O)n(-c2ccccc2)n1C
- IC50 [27]: 130 nM
- IC50 [28]: 300 nM

Compound: Cn1cc(-c2ccc(=O)n(C[C@@H]3CN(c4ncc(OCC5CCNCC5)cn4)CCO3)n2)cn1
- IC50 [29]: 19 nM
- IC50 [30]: 3170 nM

Compound: COc1ccc2c(OCc3nnc4ncc(-c5ccccc5)nn34)ccnc2c1
- IC50 [7]: 21 nM
- IC50 [31]: 12 nM

Compound: COc1cc2c(Oc3ccc(NC(=O)/C=C/S(=O)(=O)c4ccccc4)cc3F)ccnc2cc1OCCCN1CCN(C)CC1
- IC50 [7]: 450 nM

Compound: COc1cc2c(Oc3ccc(N/C=C(\C#N)C(=O)Nc4ccc(C)cc4)cc3F)ccnc2cc1OCCCN1CCN(C)CC1
- IC50 [32]: 40 nM
- IC50 [7]: 390 nM

Compound: OC1CCC(n2cc(-c3ncc4ncn(Cc5ccc6ncccc6c5)c4n3)cn2)CC1 (stereo not given)
- IC50 [33]: 10400 nM
- IC50 [34]: 125000 nM

Compound: Cc1ccc(N2NC(=O)/C(=C/c3ccc(-c4cc([N+](=O)[O-])ccc4O)o3)C2=O)cc1C
- IC50 [16]: 460 nM

Compound: CNC(=O)c1ccc(-c2ccc3ncc(S(=O)(=O)n4ccc5cnccc54)n3c2)cc1F
- IC50 [35]: 9.9 nM
- IC50 [36]: 19.8 nM

Compound: COc1cc2c(Oc3ccc(N/C=C4\C(=O)N(c5ccccc5C(F)(F)F)N=C4C)cc3F)ccnc2cc1OCCCN1CCOCC1
- IC50 [26]: 2.2 nM
- IC50 [7]: 30 nM

Compound: COc1cc2c(Oc3ccc(NC(=O)Nc4nc5c(C)ccc(C)c5s4)cc3F)ccnc2cc1OCCCN1CCN(C)CC1
- IC50 [26]: 17.6 nM
- IC50 [7]: 60 nM

Compound: CC(C)=C1C/C=C(\C)CC/C=C(\C)CC1OC(=O)c1ccc(C)cc1 (stereo not given)
- IC50 [12]: 75800 nM
- IC50 [13]: 68200 nM
- IC50 [14]: 84800 nM
- IC50 [15]: 83600 nM

Compound: COc1cc2nccc(Oc3ccc(NC(=O)C4(Cl)CCCN(c5ccc(F)cc5)C4=O)cc3F)c2cc1OC (stereo not given)
- IC50 [35]: 570 nM
